Experimental findings from US4550186A, “Binuclear copper (II) carboxylates formed from amine-carboxyboranes” (Duke University, priority 1983, dated 1985) are described below.

One assay deals with T1, dihydrofolate reductase (Mus musculus, UniProt P00375).
T1 sequence (P00375 1-187): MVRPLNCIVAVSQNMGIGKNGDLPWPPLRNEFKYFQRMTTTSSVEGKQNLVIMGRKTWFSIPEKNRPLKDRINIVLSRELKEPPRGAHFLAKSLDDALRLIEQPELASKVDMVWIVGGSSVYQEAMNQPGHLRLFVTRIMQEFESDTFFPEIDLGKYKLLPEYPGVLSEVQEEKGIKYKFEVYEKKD
Kind of assay: In vivo dihydrofolate reductase activity. As for the experimental part: (§1) CF1 male mice (~30 g) were implanted with 2×10^6 Ehrlich ascites tumor cells, intraperitoneally on Day 0. Compound I was suspended by homogenation in 0.05% polysorbate.80-water and administered intraperitoneally at 10 and 20 mg/kg for 9 days to determine its effectiveness for inhibition of tumor growth. Mice were sacrificed on Day 10, and the ascites fluid was collected from the peritoneal cavity. The volume and ascrit (packed cell volume) were determined for each animal and the percent inhibition of tumor growth was calculated. For the metabolic studies, mice were treated on Days 8 and 9 with 10 mg/kg of Compound I, intraperitoneally. […]
(§2) Carbamyl phosphate synthetase activity was determined using the reaction medium of Kalman et al [Am. […] Citrulline formed from ornithine was measured at 490 nm by the method of Archibald [J. Biol. Chem., 156, 121 (1944)]. […] The ^14 CO2 generated in 15 min was trapped in 1M KOH and counted. Thymidylate synthetase activity was determined using a post-mitochondrial supernatant (9000 g×10 min) and 5 μCi of 5-^3 H-deoxyuridine monophosphate (14 Ci/mmol) according to the method of Kampf et al [ J. Med. Chem., 19, 903 (1976)]. ^14 C-Formate incorporation into purines was determined by the method of Spassova et al [Biochem. Pharmacol., 25, 923 (1976)] using 0.5 μCi of ^14 C-formic acid (52.0 mCi/mmol). […] The Rf value for xanthine monophosphate was scraped and counted. […]

The target in the next assay is T2, ribonucleotide reductase (Mus musculus, UniProt P07742+P11157).
T2 construct: endogenous in cells; host or cells: Ehrlich ascites tumor cells
T2 sequence (P07742 1-792): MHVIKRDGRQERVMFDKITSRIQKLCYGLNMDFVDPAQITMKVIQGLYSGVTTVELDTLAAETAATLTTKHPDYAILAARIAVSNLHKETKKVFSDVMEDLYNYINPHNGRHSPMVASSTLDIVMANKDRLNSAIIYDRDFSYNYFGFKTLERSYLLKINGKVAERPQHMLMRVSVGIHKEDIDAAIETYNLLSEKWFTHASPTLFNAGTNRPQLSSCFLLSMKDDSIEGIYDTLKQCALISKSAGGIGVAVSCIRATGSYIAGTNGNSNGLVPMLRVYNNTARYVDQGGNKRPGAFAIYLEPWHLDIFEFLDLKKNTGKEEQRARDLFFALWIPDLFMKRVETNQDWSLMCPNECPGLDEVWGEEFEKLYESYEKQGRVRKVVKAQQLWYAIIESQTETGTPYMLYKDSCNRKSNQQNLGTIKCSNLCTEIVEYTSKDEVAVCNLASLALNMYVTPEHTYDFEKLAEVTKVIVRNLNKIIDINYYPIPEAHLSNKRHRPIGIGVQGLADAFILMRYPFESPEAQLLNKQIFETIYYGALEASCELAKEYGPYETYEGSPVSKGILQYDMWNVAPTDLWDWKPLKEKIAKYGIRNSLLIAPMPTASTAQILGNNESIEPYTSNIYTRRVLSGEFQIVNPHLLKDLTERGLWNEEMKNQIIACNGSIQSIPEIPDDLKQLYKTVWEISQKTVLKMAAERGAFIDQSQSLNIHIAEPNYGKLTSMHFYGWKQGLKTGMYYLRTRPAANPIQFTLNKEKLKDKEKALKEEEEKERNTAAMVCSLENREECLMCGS
T2 sequence (P11157 1-390): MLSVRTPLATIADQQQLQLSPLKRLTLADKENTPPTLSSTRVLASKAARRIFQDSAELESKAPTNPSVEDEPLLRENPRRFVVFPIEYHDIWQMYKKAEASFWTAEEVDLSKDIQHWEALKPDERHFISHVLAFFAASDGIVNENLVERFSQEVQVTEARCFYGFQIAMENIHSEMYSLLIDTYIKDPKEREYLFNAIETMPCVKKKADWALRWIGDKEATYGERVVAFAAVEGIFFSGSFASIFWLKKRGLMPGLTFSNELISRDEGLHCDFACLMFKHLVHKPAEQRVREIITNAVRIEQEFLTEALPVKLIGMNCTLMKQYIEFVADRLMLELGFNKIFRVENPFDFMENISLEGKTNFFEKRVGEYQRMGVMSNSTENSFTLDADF
In words: In vitro ribonucleotide reductase activity. The class given is biochemical. Particulars: 0.25 to 1.0 mM. As to the method: as §1, §2

For the substance “{Cu[(CH3)3 N.BH2 CO2 ]2.(CH3)3 N.BH2 COOH} [Compound I]”, at dihydrofolate reductase, the “Dihydrofolate reductase activity inhibited” value is on record as 25%. The same substance displayed a Dihydrofolate reductase activity on dihydrofolate reductase (10 mg/kg/day I.P. on Days 8 and 9) of 75 ± 6 % Control. The ribonucleotide reductase inhibition result on ribonucleotide reductase was “not inhibited”.
